Assay results from patent publication US20200330456A1, “NOVEL APPLICATION OF GZD824 AND PHARMACEUTICALLY ACCEPTABLE SALTS THEREOF IN TREATING DISEASES” (HEALTHQUEST PHARMA INC., priority 2016, published 2020).

Columns and labels:
NALM6 cells = experiment: Apoptosis kit (ANNEXIN V, PI) flow cytometry, NALM6; assay type: cell-based; settings: 24 hours, GZD824 vs KX2-391 vs HO-3867 vs DMSO
Protocol: 1.2 After treating NALM6 and SUPB15 cells respectively with GZD824 (3 μM, 1 μM) and DMSO of different concentrations for 24 hours, apoptosis was detected using an apoptosis kit (ANNEXIN V, PI). Please refer to FIG. 2 for the results. After treating the two types of cells NALM6 and SUPB15 respectively with GZD824 of different concentrations (3 μM/L, 1 μM/L) for 24 hours, the cells were stained with the apoptosis kit (ANNEXIN V, PI), and apoptosis was detected with flow cytometry.
5.3 After treating NALM6 cells with GZD824, SRC suppressor (KX2-391), STAT3 suppressor (HO-3867) or DMSO for 24 hours, apoptosis was detected by using the apoptosis kit (ANNEXIN V, PI). The ratio of ANNEXIN V positive cells was analyzed by statistical methods. […] For the experimental results, please refer to FIG. 15.

[1] = test system: human primary leukemia cells from P #1 PDX mouse spleen; experiment: Apoptosis of human primary leukemia cells from P #1 PDX mouse spleen, with and without IGF-1; assay type: cell-based; settings: P #1 PDX spleen cells; GZD824 1 μM/L and IGF-1 10 ng/mL, 24 hours
Protocol: 6.2 Human primary leukemia cells were extracted from P #1 PDX mouse spleen and co-cultured with DMSO, GZD824 (1 μM/L), IGF-1 (10 ng/mL), or GZD824 (1 μM/L) and IGF-1 (10 ng/mL) for 24 hours. The ratios of ANNEXIN V positive cells were analyzed by statistical methods. […] Please refer to FIG. 17 for the experimental results.

In the case of `CC1(C)C=C(CN2C/C(=C\c3ccc(F)cc3)C(=O)/C(=C/c3ccc(F)cc3)C2)C(C)(C)N1O` [HO-3867, reference compound], the “ratio of apoptosis (ANNEXIN V positive cells), comparison of inhibitors” value (NALM6 cells) is reported as “almost the same”.

`O=C(Cc1ccc(-c2ccc(OCCN3CCOCC3)cc2)cn1)NCc1ccccc1` [KX2-391, reference compound] was tested, and the “ratio of apoptosis (ANNEXIN V positive cells), comparison of inhibitors” value (NALM6 cells) was “almost the same”.

For “IGF-1: cytokine IGF-1, added at 10 ng/mL”, the “effect of added IGF-1 on GZD824-induced apoptosis” value [1] was “partly reverse the effect of GZD824 on apoptosis”.
